“Also recorded” adds a separate entry of the source. Where two headings read alike, the source gives them in different places.
Legend:
[1] = Measurement of water-solubility; assay type: physicochemical
[2] = test system: EPC; test: Cytotoxicity in vitro, IC50 on EPC (endothelial progenitor cells); assay type: cell-based
Experimental: (§1) (5% CO2). […] All the treatments are carried out in triplicate.
(§2) EPC: endothelial progenitor cells
(§3) The endothelial progenitor cells (EPC) play an important role in angiogenesis and vasculogenesis; these last-mentioned contribute to tumour growth, are mobilized by cytokines secreted at cancer sites and contribute to postnatal vasculogenesis and to pathological neovascularization.
(§4) The cytotoxicity of a compound against a cancer cell line is evaluated.

[3] = test system: HCT116; test: Cytotoxicity in vitro, IC50 on HCT116; assay type: cell-based, human; settings: colon carcinoma
Experimental: as §1, §4

[4] = test system: SK-OV3; test: Cytotoxicity in vitro, IC50 on SK-OV3; assay type: cell-based; settings: ovarian adenocarcinoma
Experimental: as §1
(§5) SK-OV-3 and OVCAR8: ovarian adenocarcinomas
as §4

[5] = test system: MCF7; test: Cytotoxicity in vitro, IC50 on MCF7; assay type: cell-based; settings: breast carcinoma
Experimental: as §1, §4

[6] = test system: PC3; test: Cytotoxicity in vitro, IC50 on PC3; assay type: cell-based; settings: prostatic adenocarcinoma
Experimental: as §1
(§6) PC3: prostatic adenocarcinoma
as §4

[7] = test system: SK-OV3; test: Percentage of cellular inhibition at 10 μM, SK-OV3; assay type: cell-based; settings: final concentration 10 μM; ovarian adenocarcinoma
Experimental: as §1, §5

[8] = test system: MCF7; test: Percentage of cellular inhibition at 10 μM, MCF7; assay type: cell-based; settings: final concentration 10 μM; breast carcinoma
Experimental: as §1

[9] = test system: OVCAR8; test: Percentage of cellular inhibition at 10 μM, OVCAR8; assay type: cell-based; settings: final concentration 10 μM; ovarian adenocarcinoma
Experimental: as §1, §5

[10] = test system: EPC; test: Percentage of cellular inhibition at 10 μM, EPC; settings: for anti-angiogenic activity by inhibition of growth of EPC cells (in words): 10 μM; for Inhibition (in %) {EPC}: final concentration 10 μM, endothelial progenitor cells
Experimental: as §1, §3, §2

[11] = test system: KB; test: Percentage of cellular inhibition at 10 μM, KB; assay type: cell-based; settings: final concentration 10 μM; buccal carcinoma
Experimental: as §1

[12] = test system: HL60; test: Percentage of cellular inhibition at 10 μM, HL60; assay type: cell-based; settings: final concentration 10 μM; leukaemia
Experimental: as §1

[13] = test system: HCT116; test: Percentage of cellular inhibition at 10 μM, HCT116; assay type: cell-based, human; settings: final concentration 10 μM; colon carcinoma
Experimental: as §1

[14] = test system: PC3; test: Percentage of cellular inhibition at 10 μM, PC3; assay type: cell-based; settings: final concentration 10 μM; prostatic adenocarcinoma
Experimental: as §1, §6

[15] = target: integrin αvβ3 (Homo sapiens, UniProt P05106+P06756); settings: background statement; cited from earlier work
Chain of integrin αvβ3 (P06756 31-889 limits assumed): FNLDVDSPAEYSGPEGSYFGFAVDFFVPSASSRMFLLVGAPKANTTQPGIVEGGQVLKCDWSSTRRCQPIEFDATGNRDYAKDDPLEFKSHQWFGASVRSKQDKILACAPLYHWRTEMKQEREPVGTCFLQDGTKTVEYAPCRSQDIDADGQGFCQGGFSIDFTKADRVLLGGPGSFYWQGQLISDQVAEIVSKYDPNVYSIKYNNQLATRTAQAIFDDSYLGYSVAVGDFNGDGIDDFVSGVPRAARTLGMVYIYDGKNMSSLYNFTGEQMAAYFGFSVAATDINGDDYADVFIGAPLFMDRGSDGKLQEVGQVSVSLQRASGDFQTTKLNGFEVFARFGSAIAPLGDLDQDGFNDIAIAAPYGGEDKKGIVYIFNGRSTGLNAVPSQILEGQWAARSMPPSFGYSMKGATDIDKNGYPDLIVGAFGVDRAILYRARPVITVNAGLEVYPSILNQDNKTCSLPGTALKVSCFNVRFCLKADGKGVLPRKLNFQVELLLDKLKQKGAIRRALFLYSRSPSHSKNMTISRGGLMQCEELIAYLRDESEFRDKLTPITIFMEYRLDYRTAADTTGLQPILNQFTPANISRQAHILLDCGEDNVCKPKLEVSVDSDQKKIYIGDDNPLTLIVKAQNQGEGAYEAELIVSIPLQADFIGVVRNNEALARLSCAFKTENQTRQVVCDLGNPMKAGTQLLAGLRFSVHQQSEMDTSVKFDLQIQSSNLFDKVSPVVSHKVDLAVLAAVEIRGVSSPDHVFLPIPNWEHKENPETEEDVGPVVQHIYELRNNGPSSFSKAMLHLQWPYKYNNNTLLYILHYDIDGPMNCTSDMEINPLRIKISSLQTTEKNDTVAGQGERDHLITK
Chain of integrin αvβ3 (P06756 891-1048 partner limits assumed): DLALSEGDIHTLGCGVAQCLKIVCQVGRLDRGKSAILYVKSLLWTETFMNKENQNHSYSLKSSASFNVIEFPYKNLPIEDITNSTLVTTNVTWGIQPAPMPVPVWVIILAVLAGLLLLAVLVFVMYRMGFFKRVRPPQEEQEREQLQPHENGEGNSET
Chain of integrin αvβ3 (P05106 27-788): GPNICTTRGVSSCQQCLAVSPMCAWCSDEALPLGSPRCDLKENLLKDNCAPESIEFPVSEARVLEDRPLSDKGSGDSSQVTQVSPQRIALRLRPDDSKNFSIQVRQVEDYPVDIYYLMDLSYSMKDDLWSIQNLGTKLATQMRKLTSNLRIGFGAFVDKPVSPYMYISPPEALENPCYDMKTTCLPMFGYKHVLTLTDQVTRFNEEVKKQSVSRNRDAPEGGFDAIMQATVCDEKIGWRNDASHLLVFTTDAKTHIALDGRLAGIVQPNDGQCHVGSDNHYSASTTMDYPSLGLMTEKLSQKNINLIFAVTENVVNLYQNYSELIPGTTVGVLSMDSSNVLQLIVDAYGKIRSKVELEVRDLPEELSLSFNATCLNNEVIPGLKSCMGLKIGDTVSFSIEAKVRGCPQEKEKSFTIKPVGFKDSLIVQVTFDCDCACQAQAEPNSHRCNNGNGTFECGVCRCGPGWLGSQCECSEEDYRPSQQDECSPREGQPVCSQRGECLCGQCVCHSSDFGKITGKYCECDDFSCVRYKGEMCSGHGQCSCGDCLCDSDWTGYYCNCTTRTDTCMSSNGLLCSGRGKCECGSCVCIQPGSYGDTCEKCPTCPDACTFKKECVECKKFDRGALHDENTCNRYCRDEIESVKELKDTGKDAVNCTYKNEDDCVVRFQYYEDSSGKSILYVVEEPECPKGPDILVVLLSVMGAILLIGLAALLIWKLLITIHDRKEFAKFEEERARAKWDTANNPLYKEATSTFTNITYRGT

[16] = test system: Hela; test: MTS cytotoxicity assay, IC50 on Hela cell line
Experimental: (§7) MTS [3-(4,5-dimethylthiazol-2-yl)-5-(3-carboxymethoxyphenyl)-2-(4-sulphophenyl)-2H-tetrazolium] is reduced to formazan (coloured compound, the optical density of which is measured at 492 nm) by the mitochondrial dehydrogenases. Only the live cells will reduce MTS to formazan, which will be released in the medium. The optical density measured at 492 nm is directly proportional to the number of live cells.
(§8) MTS [3-(4,5-dimethylthiazol-2-yl)-5-(3-carboxymethoxyphenyl)-2-(4-sulphophenyl)-2H-tetrazolium], soluble in the culture medium, can be reduced to formazan (coloured product) by the mitochondrial dehydrogenases of the live cells. The measured optical density (492 nm) is therefore directly proportional to the quantity of live cells. The cells are deposited in a 96-well plate at 1.10^4 cells per well in 100 μL of RPMI 5% FCS. The cells are then treated with the various molecules at the desired concentrations and then incubated for 48 h at 37° C. (5% CO2). After treatment, 20 μL of MTS is added to each well. After incubation for two hours at 37° C. the optical density is measured at an absorbance of 492 nm using the plate reader Wallac Victor 2 Multi-label Counter (Technical University of Denmark, Kongens Lyngby, Denmark). All the treatments are carried out in triplicate. The blank, determined by incubating RPMI with MTS, is deducted from the values of the wells containing cells. The percentage of live cells is calculated from the following formula: (OD experiment*100)/OD control.
(§9) The cytotoxicity of the compounds according to the invention is measured in vitro on the Hela and U87 cell lines.
(§10) The cytotoxicity of a compound with respect to a cancer cell line is evaluated from the value of the inhibitory concentration IC50 of said compound with respect to said cell line.
(§11) The MTS assay gives an optical density signal that is proportional to the quantity of live cells (in a linear range). These values, as well as the untreated controls, are used for calculating the percentage of live cells at each concentration. […] The IC50 values are calculated on the basis of 4-parameter fitting using the Sigma Plot software.

[17] = test system: U87; test: MTS cytotoxicity assay, IC50 on U87 cell line
Experimental: as §7, §8, §9
U87: stage IV glioblastoma, expresses αVβ5 and can be used as a xenograft
as §10, §11

[18] = test system: Vero; test: Percentage of cellular inhibition at 10 μM, Vero; assay type: cell-based, monkey
Experimental: as §1
Vero: monkey kidney epithelial cells

[19] = test system: MRC5; test: Percentage of cellular inhibition at 10 μM, MRC5; assay type: cell-based, human; settings: final concentration 10 μM; human fetal lung cells (non-cancerous)
Experimental: as §1
MRCS: human fetal lung cells

[20] = test system: cell lines KB, SK-OV3, OVCAR-8, HL60, MCF7, HCT116, PC3, MRCS, Vero and EPC; test: Cellular inhibition, overall statements on the panel of cell lines; assay type: cell-based; settings: 10 μM, panel of cancer and non-cancerous cell lines
From the text: The results obtained are presented below.

Row | Molecule | IC50 [3] | IC50 [4] | IC50 [5] | IC50 [6] | Inhibition (in %) {SK-OV3} [7] | Inhibition (in %) {MCF7} [8] | Inhibition (in %) {OVCAR8} [9] | anti-angiogenic activity by inhibition of growth of EPC cells (in words) [10] | Inhibition (in %) {EPC} [10] | Inhibition (in %) {KB} [11] | Inhibition (in %) {HL60} [12] | Inhibition (in %) {HCT116} [13] | Inhibition (in %) {PC3} [14] | also measured
1 | CN1C=CN(Cc2ccccc2)[CH]1[Pt]([I])([I])[NH]CCN (stereo not drawn) [Example 33, trans-diiodo(N-ethylenediamine)[1-methyl-3-benzyl-imidazol-2-ylidene]platinum(II)] | – | – | – | – | – | – | – | – | – | – | – | – | – | solubility ([1]; water, thermodynamic from solid, ambient temperature and pressure): 3300 µg/mL
2 | CNC(=O)NCC(Cc1ccccc1)NC(=O)NCC(Cc1ccccc1)NC(=O)NCC(Cc1ccccc1)NC(=O)NCC(N)Cc1ccccc1.Cn1ccn(Cc2ccccc2)[c]1=[Pt]([I])[I] [Example 39, trans-diiodo(N-[1-((2R,7R,12R,17R)-17-amino-2,7,12-tribenzyl-4,9,14-trioxo-18-phenyl-3,5,8,10,13,15-hexaazaoctadecyl)-3-methylurea])[1-methyl-3-benzyl-imidazol-2-ylidene]platinum(II)] | 0.4 µM | 0.6 µM | 0.6 µM | 1.4 µM | 95.2% | 95.9% | 92.1% | anti-angiogenic activity | 99.3% | 101.2% | 91.0% | 96.1% | 90.9% | IC50 [2]: 1.9 µM
3 | cyclo(RGDfK) [cyclo(RGDfK) peptide] | – | – | – | – | – | – | – | – | – | – | – | – | – | affinity for integrin αvβ3 (in words) [15]: high affinity
4 | trans-diiodo(N-[(methoxy)polyethylene glycol amine])[1-methyl-3-benzyl-imidazol-2-ylidene]platinum(II) [Example 22] | – | – | – | – | 90.3% | 91.7% | 90.0% | anti-angiogenic activity | 93.7% | 77.8% | 87.4% | 94.3% | 78.5% | Water-solubility ([1]; ambient temperature and pressure): 11100 µg/mL
5 | trans-diiodo(N-poly(ethylenamine))[1-methyl-3-benzyl-imidazol-2-ylidene]platinum(II) [Example 34] | 1 µM | 1.2 µM | 1.7 µM | 2.8 µM | 99.1% | 98.2% | 79.1% | anti-angiogenic activity | 95.8% | 64.0% | 97.0% | 90.1% | 64.2% | cytotoxic activity compared with cisplatin, HeLa cell line (in words) ([16]; comparison with cisplatin): almost identical to that of cisplatin; IC50 ([16]; read-out: IC50 {Hela} (in μM), MTS assay, 48 h incubation): 28.4 µM; Water-solubility [1]: 6700 µg/mL; cytotoxic activity compared with cisplatin, U87 cell line (in words) ([17]; comparison with cisplatin): almost identical to that of cisplatin; IC50 ([17]; read-out: IC50 {U87} (in μM), MTS assay, 48 h incubation): 8.3 µM; cytotoxicity on non-cancerous cells Vero (in words) ([18]; 10 μM): low cytotoxicity; Inhibition (in %) {Vero} ([18]; final concentration 10 μM, monkey kidney epithelial cells (non-cancerous)): 19.5%; Inhibition (in %) {MRC5} [19]: 26.4%; inhibition of cell growth, overall statement on the cell panel (in words) [20]: inhibitor of the growth of cancer cells and an anti-angiogenic agent; also recorded: cytotoxic activity on all of the cancer cells tested

From patent US20140057887A1, “NOVEL PLATINUM-CARBENE COMPLEXES AND USE THEREOF AS MEDICAMENTS” (priority 2010, published 2014)
